Experimental data: patent publication US4221803A, “Substituted dibenzyl ethers and pharmaceutical compositions containing said ethers for the treatment of infections” (Recordati, S.A., priority 1979, dated 1980)
Values after ≈ are worked out from the molar mass of the structure shown. Where two headings read alike, the source gives them in different places.

Experiments:
Cl. novyi = test: Antibacterial activity, two-fold serial broth dilution; assay type: cell-based; conditions: Clostridium novyi, Tryptic soy broth pH 7.3, 37° C., 18 hours
Protocol: (§1) The MIC values of the products under examination and of both comparison substances, referred to a certain number of gram positive bacteria and determined according to the conventional two-fold serial broth dilution technique, are reported in Table III.
(§2) Medium: Tryptic soy broth pH 7.3 (5 ml per tube)
(§3) Inoculum: The day before the test, the microorganisms to be tested were transplanted in their respective media. After 18 hours incubation at 37° C., 0.1 ml of a 1:100 diluted suspension of each strain in broth, were inoculated in 5 ml of medium containing the products under examination at a serial concentration of from 0.009 to 160 mcg/ml.
(§4) Temperature and incubation time: 37° C. for 18 hours.

S.aureus 10B = test: as above; assay type: cell-based; conditions: Staphylococcus aureus
Protocol: as §1, §2, §3, §4

Str.hemolyt 821 = test: as above; assay type: cell-based; conditions: Tryptic soy broth pH 7.3, 37° C., 18 hours
Protocol: as §1, §2, §3, §4

S.aureus SG 511 = test: as above; assay type: cell-based; conditions: Staphylococcus aureus
Protocol: as §1, §2, §3, §4

Str.hemolyt 203 = test: as above; assay type: cell-based
Protocol: as §1, §2, §3, §4

B.subtilis = test: as above; assay type: cell-based; conditions: Bacillus subtilis
Protocol: as §1, §2, §3, §4

C.Neoformans = test: Antimycotic activity, two-fold serial broth dilution; assay type: cell-based; conditions: Cryptococcus neoformans
Protocol: (§5) In Table II are reported the minimal inhibent concentrations (MIC) of the compounds I and of both the comparison substances. For MIC, the minimal concentration is intended, i.e., one which is able to inhibit the growth of several fungi and yeasts. The MIC values have been determined according to the usual two-fold serial broth dilution technique.
(§6) Medium: Sabouraud liquid pH 5.7 (5 ml per tube)
(§7) Inoculum: Yeasts were grown in Sabouraud liquid for 24 hours (Cryptococcus neoformans for 2 days). Cells were collected by centrifugation at 6500 rpm and again suspended in physiological solution so as to have a suspension giving on a Coleman Jr II spectrophotometer, at a wavelength of 650 nm, a 50% transparence (T). 0.1 ml of this suspension constituted the inoculum for 5 ml.
(§8) Temperature and incubation time: 37° C. for 48 hours.

C.Albicans 1041 = test: as above; assay type: cell-based; conditions: Candida albicans, Sabouraud liquid pH 5.7, 37° C., 48 hours
Protocol: as §5, §6, §7, §8

C.Albicans 1040 = test: as above; assay type: cell-based; conditions: Candida albicans, Sabouraud liquid pH 5.7, 37° C., 48 hours
Protocol: as §5, §6, §7, §8

C.Albicans Grunenthal = test: as above; assay type: cell-based; conditions: Candida albicans, Sabouraud liquid pH 5.7, 37° C., 48 hours
Protocol: as §5, §6, §7, §8

C.Albicans R = test: as above; assay type: cell-based; conditions: Candida albicans, Sabouraud liquid pH 5.7, 37° C., 48 hours
Protocol: as §5, §6, §7, §8

E.Floccosum = test: as above; assay type: cell-based; conditions: Epidermophyton floccosum, 168 h, Sabouraud liquid pH 5.7, 25° C., 7 days
Protocol: as §5, §6
(§9) For Aspergillus niger, after filtration, a 1/10 dilution in physiological solution was prepared. 0.1 ml of this dilution constituted the inoculum for 5 ml.
(§10) Temperature and incubation time: 25° C. for 7 days.

T.Mentagroph. 5865 = test: as above; assay type: cell-based; conditions: 168 h, Sabouraud liquid pH 5.7, 25° C., 7 days
Protocol: as §5, §6, §9, §10

T.Mentagroph. 2538 = test: as above; assay type: cell-based; conditions: 168 h, Sabouraud liquid pH 5.7, 25° C., 7 days
Protocol: as §5, §6, §9, §10

T.Mentagroph. 10148 = test: as above; assay type: cell-based; conditions: 168 h
Protocol: as §5, §6, §9, §10

T.Rubrum 2121 = test: as above; assay type: cell-based
Protocol: as §5, §6, §9, §10

P.Chrysogenum = test: as above; assay type: cell-based; conditions: Penicillium chrysogenum, 168 h, Sabouraud liquid pH 5.7, 25° C., 7 days
Protocol: as §5, §6, §9, §10

T.Verrucosum = test: as above; assay type: cell-based; conditions: Trichophyton verrucosum, 168 h
Protocol: as §5, §6, §9, §10

M.Canis 28 = test: as above; assay type: cell-based; conditions: Microsporum canis, 168 h, Sabouraud liquid pH 5.7, 25° C., 7 days
Protocol: as §5, §6, §9, §10

A.Niger = test: as above; assay type: cell-based; conditions: Aspergillus niger, 168 h, Sabouraud liquid pH 5.7, 25° C., 7 days, inoculum 1/10 dilution
Protocol: as §5, §6, §9, §10

[1] = Acute toxicity per os in the mouse; conditions: in vivo, po
Description: In Table I are reported the acute toxicity values (LD50) of the compounds I and of both the comparison substances. Toxicity, given in mg/Kg, has been evaluated per os in the mouse by conventional methods.

[2] = 10B, 18 h, pH 7.3, read-out: Antibacterial activity (MIC)
[3] = SG511, 18 h, pH 7.3, read-out: Antibacterial activity (MIC)
[4] = Str.hemolyt 203, Tryptic soy broth pH 7.3, 37° C., 18 hours, read-out: Antibacterial activity (MIC)
[5] = 18 h, pH 7.3, read-out: Antibacterial activity (MIC)
[6] = 48 h, pH 5.7, read-out: Antimycotic activity (MIC)
[7] = pH 5.7, read-out: Antimycotic activity (MIC)
[8] = Trichophyton rubrum, 2121, 168 h, pH 5.7, read-out: Antimycotic activity (MIC)
[9] = T.Verrucosum, Sabouraud liquid pH 5.7, 25° C., 7 days, read-out: Antimycotic activity (MIC)
[10] = S.aureus 10B, Tryptic soy broth pH 7.3, 37° C., 18 hours, read-out: Antibacterial activity (MIC)
[11] = SG511, S.aureus SG 511, Tryptic soy broth pH 7.3, 37° C., 18 hours, read-out: Antibacterial activity (MIC)
[12] = B.subtilis, Tryptic soy broth pH 7.3, 37° C., 18 hours, read-out: Antibacterial activity (MIC)
[13] = C.Neoformans, Sabouraud liquid pH 5.7, 37° C., 48 hours, read-out: Antimycotic activity (MIC)
[14] = T.Mentagroph. 10148, Sabouraud liquid pH 5.7, 25° C., 7 days, read-out: Antimycotic activity (MIC)
[15] = Trichophyton rubrum, 168 h, T.Rubrum 2121, Sabouraud liquid pH 5.7, 25° C., 7 days, read-out: Antimycotic activity (MIC)

Row | Structure (SMILES) | MIC (Cl. novyi) | MIC (S.aureus 10B; [2]) | MIC (Str.hemolyt 821) | MIC (S.aureus SG 511; [3]) | MIC (Str.hemolyt 203; [4]) | MIC (B.subtilis; [5]) | MIC (C.Neoformans; [6]) | MIC (C.Albicans 1041) | MIC (C.Albicans 1040) | MIC (C.Albicans Grunenthal) | MIC (C.Albicans R) | MIC (E.Floccosum) | MIC (T.Mentagroph. 5865) | MIC (T.Mentagroph. 2538) | MIC (T.Mentagroph. 10148; [7]) | MIC (P.Chrysogenum) | MIC (M.Canis 28) | MIC (A.Niger) | LD50 [1] | MIC (T.Verrucosum; [9]) | other results
1 | Clc1ccccc1C(c1ccccc1)(c1ccccc1)n1ccnc1 [Clotrimazole, [(imidazol-1-yl)-2-(o-chlorophenyl)-2,2-diphenylmethane]] | > 160 µg/mL | 1.25 µg/mL (≈ 3.62 µM) | 2.5 µg/mL (≈ 7.25 µM) | 0.312 µg/mL (≈ 0.905 µM) | 5 µg/mL (≈ 14.5 µM) | 2.5 µg/mL (≈ 7.25 µM) | 0.625 µg/mL (≈ 1.81 µM) | 40 µg/mL (≈ 116 µM) | 40 µg/mL (≈ 116 µM) | 10 µg/mL (≈ 29 µM) | 10 µg/mL (≈ 29 µM) | 5 µg/mL (≈ 14.5 µM) | 0.62 µg/mL (≈ 1.8 µM) | 0.078 µg/mL (≈ 0.226 µM) | 1.25 µg/mL (≈ 3.62 µM) | 40 µg/mL (≈ 116 µM) | 2.5 µg/mL (≈ 7.25 µM) | 10 µg/mL (≈ 29 µM) | 880 mg/kg | – | MIC (T.Rubrum 2121; [8]): 1.25 µg/mL (≈ 3.62 µM); MIC (T.Verrucosum; [7]): 1.25 µg/mL (≈ 3.62 µM)
2 | Clc1ccc(COC(Cn2ccnc2)c2ccc(Cl)cc2Cl)c(Cl)c1 (stereo not drawn) [Miconazole, 2,2',4,4'-tetrachloro-α-(N-imidazolyl-methyl)-dibenzyl ether] | < 1.25 µg/mL | 0.312 µg/mL (≈ 0.75 µM) | 1.25 µg/mL (≈ 3 µM) | 0.312 µg/mL (≈ 0.75 µM) | – | 0.625 µg/mL (≈ 1.5 µM) | 0.078 µg/mL (≈ 0.187 µM) | 20 µg/mL (≈ 48.1 µM) | 20 µg/mL (≈ 48.1 µM) | 5 µg/mL (≈ 12 µM) | 5 µg/mL (≈ 12 µM) | 5 µg/mL (≈ 12 µM) | 0.31 µg/mL (≈ 0.745 µM) | 0.078 µg/mL (≈ 0.187 µM) | 0.625 µg/mL (≈ 1.5 µM) | 20 µg/mL (≈ 48.1 µM) | 5 µg/mL (≈ 12 µM) | 40 µg/mL (≈ 96.1 µM) | 870 mg/kg | 2.5 µg/mL (≈ 6.01 µM) | MIC (Str.hemolyt 203; [5]): 0.625 µg/mL (≈ 1.5 µM); MIC (T.Rubrum 2121; [8]): 0.312 µg/mL (≈ 0.75 µM)
3 | Clc1ccc(C(Cn2ccnc2)OCc2ccc(Sc3ccccc3)cc2)c(Cl)c1 (stereo not drawn) [R=C6 H5 S, 2,4-Dichloro-4'-phenylthio-α-(N-imidazolyl-methyl)-dibenzyl ether] | 5 µg/mL (≈ 11 µM) | – | 0.156 µg/mL (≈ 0.343 µM) | – | 0.078 µg/mL (≈ 0.171 µM) | – | – | 80 µg/mL (≈ 176 µM) | 80 µg/mL (≈ 176 µM) | 40 µg/mL (≈ 87.8 µM) | 40 µg/mL (≈ 87.8 µM) | 5 µg/mL (≈ 11 µM) | 1.25 µg/mL (≈ 2.74 µM) | 0.156 µg/mL (≈ 0.343 µM) | – | 5 µg/mL (≈ 11 µM) | 2.5 µg/mL (≈ 5.49 µM) | 10 µg/mL (≈ 22 µM) | 3000 mg/kg | 1.25 µg/mL (≈ 2.74 µM) | MIC (S.aureus 10B; [10]): 0.018 µg/mL (≈ 0.0395 µM); MIC (S.aureus SG 511; [11]): 0.039 µg/mL (≈ 0.0856 µM); MIC (B.subtilis; [12]): 0.078 µg/mL (≈ 0.171 µM); MIC (C.Neoformans; [13]): 0.156 µg/mL (≈ 0.343 µM); MIC (T.Mentagroph. 10148; [14]): 0.625 µg/mL (≈ 1.37 µM); MIC (T.Rubrum 2121; [15]): 0.625 µg/mL (≈ 1.37 µM)
4 | Clc1ccc(C(Cn2ccnc2)OCc2ccc(-c3ccccc3)cc2)c(Cl)c1 (stereo not drawn) [R=C6 H5, 2,4-Dichloro-4'-phenyl-α-(N-imidazolyl-methyl)-dibenzyl ether] | < 1.25 µg/mL | – | 0.156 µg/mL (≈ 0.368 µM) | – | 0.312 µg/mL (≈ 0.737 µM) | – | – | 20 µg/mL (≈ 47.2 µM) | 10 µg/mL (≈ 23.6 µM) | 5 µg/mL (≈ 11.8 µM) | 5 µg/mL (≈ 11.8 µM) | 10 µg/mL (≈ 23.6 µM) | 1.25 µg/mL (≈ 2.95 µM) | 0.156 µg/mL (≈ 0.368 µM) | – | 20 µg/mL (≈ 47.2 µM) | 20 µg/mL (≈ 47.2 µM) | 20 µg/mL (≈ 47.2 µM) | 2400 mg/kg | 10 µg/mL (≈ 23.6 µM) | MIC (S.aureus 10B; [10]): 0.039 µg/mL (≈ 0.0921 µM); MIC (S.aureus SG 511; [11]): 0.039 µg/mL (≈ 0.0921 µM); MIC (B.subtilis; [12]): 0.156 µg/mL (≈ 0.368 µM); MIC (C.Neoformans; [13]): 0.312 µg/mL (≈ 0.737 µM); MIC (T.Mentagroph. 10148; [14]): 0.625 µg/mL (≈ 1.48 µM); MIC (T.Rubrum 2121; [15]): 0.625 µg/mL (≈ 1.48 µM)
